According to patent US20130190407A1, “CALCIUM RECEPTOR-ACTIVE MOLECULES” (NPS Pharmaceuticals, Inc., priority 1991, published 2013):

Legend:
Type in all cases: cell-based
[1] = biological target: T1, parathyroid cell calcium receptor (Bos taurus, UniProt P35384); assay: Cl- current in Xenopus oocytes injected with bovine parathyroid cell poly(A)+-mRNA; set-up: Whole pieces of gland were used to prepare mRNA that directs the expression of the calcium receptor in Xenopus oocytes; expressed in transfected cells; host or cells: Xenopus laevis oocytes injected with total poly(A)+ mRNA from bovine parathyroid glands; conditions: 30 μM
T1 sequence (P35384 20-1085): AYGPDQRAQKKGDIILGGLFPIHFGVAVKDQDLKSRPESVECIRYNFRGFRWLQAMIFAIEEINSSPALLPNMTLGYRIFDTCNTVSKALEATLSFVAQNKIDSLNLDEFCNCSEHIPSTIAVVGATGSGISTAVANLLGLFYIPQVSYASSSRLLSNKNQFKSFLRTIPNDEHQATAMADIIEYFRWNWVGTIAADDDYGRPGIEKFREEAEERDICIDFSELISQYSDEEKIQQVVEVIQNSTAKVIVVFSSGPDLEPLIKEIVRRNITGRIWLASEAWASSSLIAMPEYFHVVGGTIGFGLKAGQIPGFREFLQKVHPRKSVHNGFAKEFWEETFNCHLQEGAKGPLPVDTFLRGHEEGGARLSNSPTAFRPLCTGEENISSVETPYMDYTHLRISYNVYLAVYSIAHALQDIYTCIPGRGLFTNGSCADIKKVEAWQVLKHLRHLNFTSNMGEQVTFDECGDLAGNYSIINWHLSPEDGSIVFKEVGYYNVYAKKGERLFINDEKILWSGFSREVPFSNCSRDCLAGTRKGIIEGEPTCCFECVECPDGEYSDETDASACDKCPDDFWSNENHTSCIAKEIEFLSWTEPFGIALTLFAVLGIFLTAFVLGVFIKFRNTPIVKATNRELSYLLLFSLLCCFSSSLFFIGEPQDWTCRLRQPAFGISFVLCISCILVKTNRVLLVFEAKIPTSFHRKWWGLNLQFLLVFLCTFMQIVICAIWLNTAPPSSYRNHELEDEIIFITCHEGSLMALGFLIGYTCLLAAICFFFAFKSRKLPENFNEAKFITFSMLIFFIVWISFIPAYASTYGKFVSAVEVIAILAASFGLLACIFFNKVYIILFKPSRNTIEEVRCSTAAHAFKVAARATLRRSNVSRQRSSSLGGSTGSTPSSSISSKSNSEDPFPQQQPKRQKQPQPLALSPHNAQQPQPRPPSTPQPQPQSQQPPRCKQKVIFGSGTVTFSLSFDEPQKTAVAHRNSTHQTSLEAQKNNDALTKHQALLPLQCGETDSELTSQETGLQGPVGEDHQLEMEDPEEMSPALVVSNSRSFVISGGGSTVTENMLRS
Method: Following incubation, an oocyte was placed into a 100-μl plastic chamber and superfused with MBS at a flow rate of 0.5 ml/min using a peristaltic pump. Test molecules or inorganic polycations were added by rapidly moving the tubing into different buffers. Recording and current-passing electrodes were constructed from thin-wall capillary tubing pulled to a resistance of 1-3 Mohms and filled with 3 M KCl. […] Currents were recorded directly onto a strip chart recorder.
Dissociated bovine parathyroid cells were used to further explore the mechanism of action of NPS R-467 at the receptor level. […] It does, however, elicit responses in parathyroid cells and in oocytes when a small amount of extracellular Ca^2+ is present.

[2] = biological target: T2, osteoclast calcium receptor (Rattus norvegicus, UniProt P48442); assay: [Ca2+]i (indo-1) in single rat osteoclasts
T2 sequence (P48442 20-1079): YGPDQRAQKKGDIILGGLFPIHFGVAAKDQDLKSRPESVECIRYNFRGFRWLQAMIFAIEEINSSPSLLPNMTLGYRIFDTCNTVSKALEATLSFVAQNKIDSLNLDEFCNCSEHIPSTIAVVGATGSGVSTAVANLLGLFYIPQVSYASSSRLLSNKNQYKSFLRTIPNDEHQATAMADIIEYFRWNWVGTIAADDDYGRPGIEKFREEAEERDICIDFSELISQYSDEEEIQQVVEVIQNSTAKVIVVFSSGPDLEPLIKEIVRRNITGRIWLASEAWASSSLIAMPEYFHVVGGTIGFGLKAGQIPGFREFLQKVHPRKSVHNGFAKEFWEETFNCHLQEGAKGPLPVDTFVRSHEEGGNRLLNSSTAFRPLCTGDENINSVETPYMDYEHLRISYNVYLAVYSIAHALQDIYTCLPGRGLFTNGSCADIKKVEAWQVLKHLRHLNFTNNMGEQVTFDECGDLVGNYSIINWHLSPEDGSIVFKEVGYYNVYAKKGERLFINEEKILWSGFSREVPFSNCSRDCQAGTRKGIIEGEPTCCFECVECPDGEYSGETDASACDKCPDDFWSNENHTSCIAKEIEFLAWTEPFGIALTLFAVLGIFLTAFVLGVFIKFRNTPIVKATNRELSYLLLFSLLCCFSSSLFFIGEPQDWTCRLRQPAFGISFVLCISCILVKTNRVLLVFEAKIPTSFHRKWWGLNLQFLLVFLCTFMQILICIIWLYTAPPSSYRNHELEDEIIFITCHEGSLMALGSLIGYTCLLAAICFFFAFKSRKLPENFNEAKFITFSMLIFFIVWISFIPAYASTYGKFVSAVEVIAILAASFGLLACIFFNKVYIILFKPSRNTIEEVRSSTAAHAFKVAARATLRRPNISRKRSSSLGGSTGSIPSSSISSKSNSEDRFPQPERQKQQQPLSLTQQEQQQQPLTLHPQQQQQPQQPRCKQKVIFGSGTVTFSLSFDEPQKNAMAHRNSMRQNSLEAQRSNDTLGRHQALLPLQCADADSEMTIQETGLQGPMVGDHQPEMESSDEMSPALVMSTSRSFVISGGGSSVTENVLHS

calcium receptor = biological target: T3, calcium receptor (Bos taurus, UniProt P35384); assay: 45Ca2+ release from Xenopus oocytes injected with bovine parathyroid mRNA; conditions: 10 mM for 20 min, compared to mock challenge with buffer
T3 construct: Whole pieces of gland were used to prepare mRNA that directs the expression of the calcium receptor in Xenopus oocytes; expressed in transfected cells; host or cells: Xenopus laevis oocytes injected with total poly(A)+ mRNA from bovine parathyroid glands
T3 sequence (P35384 20-1085): T1 sequence (P35384 20-1085)
Excerpt: For example, we have been able to detect calcium receptor expression in oocytes by measuring ^45Ca^2+ mobilization. […] Prior to being stimulated, oocytes were loaded with ^45Ca^2+. […] The assay is sensitive enough for use in cloning the calcium receptor, and has the advantage of a higher throughput than the electrophysiological measurement of Ca^2+-activated Cl^− current.

Bovine parathyroid cells = assay: PTH secretion from bovine parathyroid cells; conditions: concentrations that mobilize intracellular Ca2+
Method: PTH secretion was measured by first suspending cells in PCB containing 0.5 mM CaCl2 and 0.1% BSA.
Counting of samples and data reduction were performed on a Packard Cobra 5005 gamma counter.

Structure (SMILES)	Cl- current [1]	compounds that caused any large increase in [Ca2+]i [2]	effect on response to subsequent extracellular Ca2+ [2]	increase in [Ca2+]i [2]	EC50 OSTEOCLAST ([2]; Table 6, rat osteoclasts, indo-1)	increase in 45Ca2+ release (calcium receptor) [%]	PTH secretion (Bovine parathyroid cells)
COc1cccc([C@@H](C)NCCCc2ccccc2)c1 (single isomer, unassigned) [NPS R-467]	rapid increase in Cl^− current	–	–	–	–	–	–
NC[C@@H]1O[C@H](O[C@H]2[C@@H](O)[C@H](O[C@@H]3[C@@H](O)[C@H](N)C[C@H](N)[C@H]3O[C@H]3O[C@H](CN)[C@@H](O)[C@H](O)[C@H]3N)O[C@@H]2CO)[C@H](N)[C@@H](O)[C@@H]1O [Neomycin B, neomycin B]	–	none	did not block the increase	failed to evoke any increase	inactive	76	inhibited PTH secretion to the same extent as extracellular Ca^2+
